Experimental data: US20240083903A1, “ARYL ETHER COMPOUNDS AS TEAD MODULATORS” (Merck Sharp& Dohme LLC, priority 2021, published 2024)

What follows are molecules tested on TEAD Reporter-MCF7 cell line (assay: YAP/TEAD cellular activity assay: inhibition of TEAD-Luc activity in TEAD Reporter-MCF7 cell line). Details: Homo sapiens, MCF7, 24 h, TEAD Reporter-MCF7 cells, 24 hours incubation with compound, luciferase readout.
Format: cell-based, human
Method: YAP/TEAD Cellular Activity Assay
Quantitation of Compound Potency on the Inhibition of TEAD-Luc Activity in TEAD Reporter-MCF7 Cell Line.
The TEAD Reporter-MCF7 cell line containing the firefly luciferase gene under the control of TEAD responsive elements stably integrated into the human breast cancer cell line was purchased from BPS Bioscience (Cat #60618). The cells were cultured with complete culture medium ([…], 1 mM sodium pyruvate, 10% fetal bovine serum, 10 ng/mL insulin and 400 ug/mL G418 sulfate) prior to the assay. For the assay, the cells were harvested, resuspended in the complete culture medium without G418, and seeded into white solid bottom 384-well cell culture microplates in 25 uL with 10,000 cells per well. The plates were incubated at 37° C. in a CO2 incubator for 20-24 hours and the compounds were then transferred from Echo LDV plates directly into the 384-well white tissue culture plates with an Echo. The plates were incubated at 37° C. in a CO2 incubator for 24 hours and equal volume of ONE-Glo™ EX Luciferase reagent (Promega, Cat #E8150) was added. After mixing on a shaker at room temperature for 10 minutes, the luciferase activity was measured with an Envision. The percentage inhibition and EC50 values of compounds were calculated with Spotfire.
Required Materials • 1. TEAD reporter-MCF-7 Cells (BPS Bioscience, #60618) • 2. Complete Cell Culture Medium (without selection antibiotics) • EMEM 89% (ATCC, #30-2003) • FBS 10% (Hyclone, #SH30088.03) • 1% Non essential amino acids (Gibco, • 1 mM sodium pyruvate (Gibco, • Pen/Strep, 1% (Gibco, #15140-122) • 10 ng/mL insulin (Sigma, #10516) • 3. Complete Cell Culture Medium (with selection antibiotics) • EMEM 89% (ATCC, #30-2003) • F1% Non essential amino acids (Gibco, • 1 mM sodium pyruvate (Gibco, • BS 10% (Hyclone, #SH30088.03) • 10 ng/mL insulin (Sigma, #10516) • 400 ug/mL G418 sulfate (Agilent, #200049-21) • 4. Miscellaneous tissue culture equipment and reagents. • 5. White solid 384-well tissue culture plate (Greiner, Cat #781080) • 6. One Glo EX luciferase assay system (Promega, #E8150)
The following table tabulates the biological data disclosed for the current invention. The biological data was collected using the methodology described above. For each compound, TEAD-Luc EC50 values are listed in nanomolar (nM) concentration units.

Compound	EC50 [nM]
CNS(=O)(=O)c1ccc(Oc2ccc(C(F)(F)F)cc2)c(-c2cnc3c(C)cccn23)c1 [1-4, N-Methyl-3-(8-methylimidazo[1,2-a]pyridin-3-yl)-4-(4-(trifluoromethyl)phenoxy)benzenesulfonamide]	6030
CNS(=O)(=O)c1ccc(Oc2ccc(C(F)(F)F)cc2)c(-c2cnc3n2CCC3)c1 [1-6, 3-(6,7-dihydro-5H-pyrrolo[1,2-a]imidazol-3-yl)-N-methyl-4-[4-(trifluoromethyl)phenoxy]benzene-1-sulfonamide]	3490
CNS(=O)(=O)c1ccc(Oc2ccc(C(F)(F)F)cc2)c(-c2ncc3cnccn23)c1 [1-7, 3-(imidazo[1,5-a]pyrazin-3-yl)-N-methyl-4-[4-(trifluoromethyl)phenoxy]benzene-1-sulfonamide]	5350
CNS(=O)(=O)c1ccc(Oc2ccc(C(F)(F)F)cc2)c(-c2[nH]nc3ccccc23)c1 [1-8, 3-(2H-indazol-3-yl)-N-methyl-4-[4-(trifluoromethyl)phenoxy]benzene-1-sulfonamide]	2870
CNS(=O)(=O)c1ccc(Oc2ccc(C(F)(F)F)cc2)c(-c2nc3ncccn3n2)c1 [1-10, N-methyl-3-([1,2,4]triazolo[1,5-a]pyrimidin-2-yl)-4-[4-(trifluoromethyl)phenoxy]benzene-1-sulfonamide]	454
CNS(=O)(=O)c1ccc(Oc2ccc(C(F)(F)F)cc2)c(-c2nc3cc(OC)ccc3[nH]2)c1 [1-12, 3-(5-methoxy-1H-benzimidazol-2-yl)-N-methy1-4-[4-(trifluoromethyl)phenoxy]benzene-1-sulfonamide]	5440
CNS(=O)(=O)c1ccc(Oc2ccc(C(F)(F)F)cc2)c(-c2nsc3ccccc23)c1 [1-13, 3-(1,2-benzothiazol-3-yl)-N-methyl-4-[4-(trifluoromethyl)phenoxy]benzene-1-sulfonamide]	414
CNS(=O)(=O)c1ccc(Oc2ccc(C(F)(F)F)cc2)c(-c2nc3c(s2)CNC3)c1 [1-14, 3-(5,6-dihydro-4H-pyrrolo[3,4-d] [1,3]thiazol-2-yl)-N-methyl-4-[4-(trifluoromethyl)phenoxy]benzene-1-sulfonamide]	2640
CNS(=O)(=O)c1ccc(Oc2ccc(C(F)(F)F)cc2)c(-c2nc3cnccn3n2)c1 [1-15, N-methyl-3-([1,2,4]triazolo[1,5-a]pyrazin-2-yl)-4-[4-(trifluoromethyl)phenoxy]benzene-1-sulfonamide]	540
CNS(=O)(=O)c1ccc(Oc2ccc(C(F)(F)F)cc2)c(-c2cc3c(s2)CCNC3)c1 [1-16, N-methyl-3-(4,5,6,7-tetrahydrothieno[3,2-c]pyridin-2-yl)-4-[4-(trifluoromethyl)phenoxy]benzene-1-sulfonamide]	4020
CNS(=O)(=O)c1ccc(Oc2ccc(C(F)(F)F)cc2)c(-c2nc3n(c2C#N)CCNC3)c1 [1-17, 3-(3-cyano-5,6,7,8-tetrahydroimidazo[1,2-a]pyrazin-2-yl)-N-methyl-4-[4-(trifluoromethyl)phenoxy]benzene-1-sulfonamide]	1070
CNS(=O)(=O)c1ccc(Oc2ccc(C(F)(F)F)cc2)c(-c2cnc3ccccn23)c1 [1-20, 3-(imidazo[1,2-a]pyridin-3-yl)-N-methyl-4-[4-(trifluoromethyl)phenoxy]benzene-1-sulfonamide]	7140
CNS(=O)(=O)c1ccc(Oc2ccc(C(F)(F)F)cc2)c(-c2cnc3c(N)cccn23)c1 [1-21, 3-(8-aminoimidazo[1,2-a]pyridin-3-yl)-N-methyl-4-[4-(trifluoromethyl)phenoxy]benzene-1-sulfonamide]	9280
CNS(=O)(=O)c1ccc(Oc2ccc(C(F)(F)F)cc2)c(-c2nc(C)n3c2COCC3)c1 [1-22, N-methyl-3-(3-methyl-5,6-dihydro-8H-imidazo[5,1-c][1,4]oxazin-1-yl)-4-[4-(trifluoromethyl)phenoxy]benzene-1-sulfonamide]	1820

Results, then the molecule that gave them:

EC50 [nM]	Compound
6	CNS(=O)(=O)c1ccc(Oc2ccc(C(F)(F)F)cc2)c(-c2cn3c(n2)CCC3)c1 [1-1, 3-(6,7-Dihydro-5H-pyrrolo[1,2-a]imidazol-2-yl)-N-methyl-4-(4-(trifluoromethyl)phenoxy)benzenesulfonamide]
5.1	CNS(=O)(=O)c1ccc(Oc2ccc(C(F)(F)F)cc2)c(-c2cc3n(n2)CCC3)c1 [1-2, 3-(5,6-Dihydro-4H-pyrrolo[1,2-b]pyrazol-2-yl)-N-methyl-4-(4-(trifluoromethyl)phenoxy)benzenesulfonamide]
36.2	CNS(=O)(=O)c1ccc(Oc2ccc(C(F)(F)F)cc2)c(-c2cn3c(n2)COCC3)c1 [1-3, 3-(5,6-Dihydro-8H-imidazo[2,1-c] [1,4]oxazin-2-yl)-N-methyl-4-(4-(trifluoromethyl)phenoxy)benzenesulfonamide]
106	CNS(=O)(=O)c1ccc(Oc2ccc(C(F)(F)F)cc2)c(-c2cnn3c2CCC3)c1 [1-5, 3-(5,6-dihydro-4H-pyrrolo[1,2-b]pyrazol-3-yl)-N-methyl-4-[4-(trifluoromethyl)phenoxy]benzene-1-sulfonamide]
12.8	CNS(=O)(=O)c1ccc(Oc2ccc(C(F)(F)F)cc2)c(-c2cn3c(n2)CCCC3)c1 [1-9, N-methyl-3-(5,6,7,8-tetrahydroimidazo [1,2-a]pyridin-2-yl)-4-[4-(trifluoromethyl)phenoxy]benzene-1-sulfonamide]
238	CNS(=O)(=O)c1ccc(Oc2ccc(C(F)(F)F)cc2)c(-c2nc3cccnc3s2)c1 [1-11, N-methyl-3-([1,3]thiazolo[5,4-b]pyridin-2-yl)-4-[4-(trifluoromethyl)phenoxy]benzene-1-sulfonamide]
34.1	CNS(=O)(=O)c1ccc(Oc2ccc(C(F)(F)F)cc2)c(-c2cn3ccsc3n2)c1 [1-18, 3-(imidazo[2,1-b][1,3]thiazol-6-yl)-N-methyl-4-[4-(trifluoromethyl)phenoxy]benzene-1-sulfonamide]
60.6	CNS(=O)(=O)c1ccc(Oc2ccc(C(F)(F)F)cc2)c(-c2cc3ncccn3n2)c1 [1-19, N-methyl-3-(pyrazolo[1,5-a]pyrimidin-2-yl)-4-[4-(trifluoromethyl)phenoxy]benzene-1-sulfonamide]

Same assay, conditions: TEAD Reporter-MCF7 cells, 24 hours incubation with compound, luciferase readout

EC50 [nM]	Compound
28.4	CNS(=O)(=O)c1ccc(Oc2ccc(C(F)(F)F)cc2)c(-c2cn3c(n2)OC(C)C3)c1 (single isomer, unassigned) [1-38, (R)- or (S)-N-methyl-3-(2-methyl-2,3-dihydroimidazo[2,1-b] [1,3]oxazol-6-yl)-4-[4-(trifluoromethyl)phenoxy]benzene-1-sulfonamide]
7.4	CNS(=O)(=O)c1ccc(Oc2ccc(C(F)(F)F)cc2)c(-c2cn3c(n2)OC(C)C3)c1 (single isomer, unassigned) [1-39, (S)- or (R)-N-methyl-3-(2-methyl-2,3-dihydroimidazo[2,1-b] [1,3]oxazol-6-yl)-4-[4-(trifluoromethyl)phenoxy]benzene-1-sulfonamide]
26.1	CNS(=O)(=O)c1ccc(Oc2ccc(C(F)(F)F)cc2)c(-c2cn3c(n2)CC(C)C3)c1 (single isomer, unassigned) [1-41, (R)- or (S)-N-methyl-3-(6-methyl-6,7-dihydro-5H-pyrrolo [1,2-a]imidazol-2-yl)-4-[4-(trifluoromethyl)phenoxy]benzene-1-sulfonamide]
6.4	CNS(=O)(=O)c1ccc(Oc2ccc(C(F)(F)F)cc2)c(-c2cn3c(n2)CC(C)C3)c1 (single isomer, unassigned) [1-42, (S)- or (R)-N-methyl-3-(6-methyl-6,7-dihydro-5H-pyrrolo[1,2-a]imidazol-2-yl)-4-[4-(trifluoromethyl)phenoxy]benzene-1-sulfonamide]
8.1	CNS(=O)(=O)c1ccc(Oc2ccc(C(F)(F)F)cc2)c(-c2cn3c(n2)C(C)CC3)c1 (single isomer, unassigned) [1-43, (R)- or (S)-N-methyl-3-(7-methyl-6,7-dihydro-5H-pyrrolo[1,2-a]imidazol-2-yl)-4-[4-(trifluoromethyl)phenoxy]benzene-1-sulfonamide]
33.6	CNS(=O)(=O)c1ccc(Oc2ccc(C(F)(F)F)cc2)c(-c2cn3c(n2)C(C)CC3)c1 (single isomer, unassigned) [1-44, (S)- or (R)-N-methyl-3-(7-methyl-6,7-dihydro-5H-pyrrolo[1,2-a]imidazol-2-yl)-4-[4-(trifluoromethyl)phenoxy]benzene-1-sulfonamide]
